US20210070747A1, “2(1H)-QUINOLINONE DERIVATIVE” (priority 2017, published 2021)
Read-outs that look alike come from different tables or passages of the source.

Tests used:
E. coli DNA gyrase = target: T1, E. coli DNA gyrase (Escherichia coli, UniProt P0AES6); test: Test for evaluating the activity of inhibiting E. coli DNA gyrase enzyme (Method 2, supercoiling, recombinant gyrA/gyrB complex); type: biochemical
T1 construct: made in house; host or cells: E. coli BL21 (DE3)
Description: The enzymatic activity of E. coli DNA gyrase was measured by a method comprising reacting DNA gyrase and its substrate, relaxed pBR322 (Inspiralis), in the presence of ATP and detecting the post-reaction supercoiled pBR322/relaxed pBR322 ratio with H19.
Specifically, to 1 ng/μL of relaxed pBR322, E. coli DNA gyrase enzyme (the gyrA or gyrB gene was incorporated into the pET15b plasmid and after expressing them in E. coli BL21 (DE3), purification was performed using a Ni-NTA column to form a complex at room temperature) was added at a final concentration of 0.135 nmol/mL and the mixture was incubated for 60 minutes at room temperature. This reaction was carried out in 20 mmol/L tris-HCl buffered solution (pH 8.0) comprising 0.5 mmol/L ATP, 0.005% bridge 35, 35 mmol/L ammonium acetate, 8 mmol/L magnesium chloride, 4.6% glycerol, and 1 mmol/L dithiothreitol. To the reaction mixture, H19 was added to bring the reaction to an end; thereafter, the supercoiled pBR322/relaxed pBR322 ratio was detected at excitation wavelength/emission wavelength=485 nm/535 nm. An inhibition curve was obtained by allowing the analyte compound to be present at varying concentrations during the reaction described above.

E. Coli ATCC 25922 = test: Test for evaluating antibacterial activity (E. coli), broth microdilution MIC; type: cell-based; settings: Escherichia coli, ATCC25922; 35° C., 18 hours, cation-adjusted Mueller-Hinton medium
Description: Minimum inhibitory concentration (MIC) was measured using the broth microdilution method described below in accordance with a modification of the standard method specified by CLSI (Clinical & Laboratory Standards Institute).
Bacterial cells under test were cultured overnight on a heart infusion agar medium, scraped off and suspended at a concentration equivalent to McFarland 0.5 turbidity; the suspension thus obtained was diluted 10 folds to give a liquid inoculum. The inoculum (0.005 mL) was inoculated on a cation-adjusted Mueller-Hinton medium containing the analyte compound and cultured at 35° C. for 18 hours. A minimum drug concentration at which no bacterial growth was macroscopically visible was designated MIC.

[1] = Method 2, read-out: E. Coli Gyrase supercoiling IC50

Row | SMILES | IC50 (E. coli DNA gyrase; [1]) [nM] | MIC (E. Coli ATCC 25922) [µg/mL] | IC50 (E. coli DNA gyrase) [nM]
1 | CNc1cc(F)cc2cc(C(=O)Nc3ccc(C(=O)O)cc3CCN(C)C)c(=O)[nH]c12 [Example 115, 3-[2-(dimethylamino)ethyl]-4-{[6-fluoro-8-(methylamino)-2-oxo-1,2-dihydroquinoline-3-carbonyl]amino} benzoic acid] | 4.57 | > 4 | 
2 | CNc1cc(F)cc2cc(C(=O)Nc3ccc(C(=O)O)cc3/C=C/CCO)c(=O)[nH]c12 [Example 119, 4-[[6-Fluoro-8-(methylamino)-2-oxo-1,2-dihydroquinoline-3-carbonyl]amino]-3-[(1E)-4-hydroxybut-1-en-1-yl]benzoic Acid] | 20.6 | > 64 | 
3 | CNc1cc(F)cc2cc(C(=O)Nc3ccc(C(=O)O)cc3CCCCO)c(=O)[nH]c12 [Example 120, 4-[[6-Fluoro-8-(methylamino)-2-oxo-1,2-dihydroquinoline-3-carbonyl]amino]-3-(4-hydroxybutyl)benzoic Acid] | 32.5 | > 32 | 
4 | CNc1cc(F)cc2cc(C(=O)Nc3ccc(C(=O)O)cc3/C=C/CCN(C)C)c(=O)[nH]c12.Cl [Example 125, 3-[(1E)-4-(dimethylamino)but-1-en-1-yl]-4-{[6-fluoro-8-(methylamino)-2-oxo-1,2-dihydroquinoline-3-carbonyl]amino}benzoic acid-hydrochloride] |  | > 32 | 24.6
5 | CNc1cc(F)cc2cc(C(=O)Nc3ccc(C(=O)O)cc3CCCCN(C)C)c(=O)[nH]c12 [Example 126, 3-[4-(dimethylamino)butyl]-4-{[6-fluoro-8-(methylamino)-2-oxo-1,2-dihydroquinoline-3-carbonyl]amino}benzoic acid] | 22 | > 8 | 
6 | CCOC(=O)c1ccc(NC(=O)c2c(O)c3cc(F)cc(NC)c3[nH]c2=O)cc1 [Example 127, Ethyl 4-[[6-fluoro-4-hydroxy-8-(methylamino)-2-oxo-1,2-dihydroquinoline-3-carbonyl]amino]benzoate] | 214 | > 16 | 
7 | CNc1cc(F)cc2cc(CNc3ccc(C(=O)O)cc3CN(C)C3CCCCC3)c(=O)[nH]c12 [Example 128, 3-[[Cyclohexyl(methyl)amino]methyl]-4-([[6-fluoro-8-(methylamino)-2-oxo-1,2-dihydroquinolin-3-yl]methyl]amino)benzoic Acid] | 340 | > 16 | 
8 | CNCCc1c(C(=O)Nc2ccc(C(=O)O)cc2)c(=O)[nH]c2c(NC)cc(F)cc12.O=C(O)C(F)(F)F [Example 130, 4-([6-Fluoro-8-(methylamino)-4-[2-(methylamino)ethyl]-2-oxo-1,2-dihydroquinoline-3-carbonyl]amino)benzoic acid-trifluoroacetate] |  | > 8 | 109
9 | CNc1cc(F)cc2c(NCCN)c(C(=O)Nc3ccc(C(=O)O)cc3)c(=O)[nH]c12.O=CO [Example 131, 4-([4-[(2-Aminoethyl)amino]-6-fluoro-8-(methylamino)-2-oxo-1,2-dihydroquinoline-3-carbonyl]amino)benzoic Acid-Formate] |  | > 16 | 0.94
10 | CNCCCc1c(C(=O)Nc2ccc(C(=O)O)cc2)c(=O)[nH]c2c(NC)cc(F)cc12.O=C(O)C(F)(F)F [Example 134, 4-([6-Fluoro-8-(methylamino)-4-[3-(methylamino)propyl]-2-oxo-1,2-dihydroquinoline-3-carbonyl]amino)benzoic Acid-Trifluoroacetate] |  | > 32 | 131
11 | CNc1cc(F)cc2c(NC[C@H]3C[C@H](N)C3)c(C(=O)Nc3ccc(C(=O)O)cc3)c(=O)[nH]c12.O=CO [Example 136, 4-{[4-{[(trans-3-aminocyclobutyl)methyl]amino}-6-fluoro-8-(methylamino)-2-oxo-1,2-dihydroquinoline-3-carbonyl]amino}benzoic acid-formate] |  | > 32 | 1.28
12 | CNc1cc(F)cc2c(NCC3CCNCC3)c(C(=O)Nc3ccc(C(=O)O)cc3)c(=O)[nH]c12.O=CO [Example 137, 4-{[6-fluoro-8-(methylamino)-2-oxo-4-{[(piperidine-4-yl)methyl]amino}-1,2-dihydroquinoline-3-carbonyl]amino}benzoic acid-formate] |  | > 32 | 1.31
13 | CNc1cc(F)cc2c(NC3CC34CCNCC4)c(C(=O)Nc3ccc(C(=O)O)cc3)c(=O)[nH]c12.O=CO (stereo not shown) [Example 139, 4-({4-[(6-azaspiro[2.5]octane-1-yl)amino]-6-fluoro-8-(methylamino)-2-oxo-1,2-dihydroquinoline-3-carbonyl}amino)benzoic acid-formate] |  | > 64 | 6.94
14 | CNc1cc(F)cc2c(NCC3(N)CCC3)c(C(=O)Nc3ccc(C(=O)O)cc3)c(=O)[nH]c12.O=CO [Example 140, 4-{[4-{[(1-aminocyclobutyl)methyl]amino}-6-fluoro-8-(methylamino)-2-oxo-1,2-dihydroquinoline-3-carbonyl]amino}benzoic acid-formate] |  | > 32 | 2.15
15 | CNCCNc1c(C(=O)Nc2ccc(C(=O)O)cc2)c(=O)[nH]c2c(NC)cc(F)cc12.O=CO [Example 141, 4-{[6-fluoro-8-(methylamino)-4-{[2-(methylamino)ethyl]amino}-2-oxo-1,2-dihydroquinoline-3-carobnyl]amino}benzoic acid-formate] |  | > 16 | 2.09
16 | CNc1cc(F)cc2c(N[C@H]3C[C@@H](N)C3)c(C(=O)Nc3ccc(C(=O)O)cc3)c(=O)[nH]c12 [Example 142, 4-({4-[(cis-3-aminocyclobutyl)amino]-6-fluoro-8-(methylamino)-2-oxo-1,2-dihydroquinoline-carbonyl}amino) 3-benzoic acid-formate] | 2.66 | > 32 | 
17 | CNc1cc(F)cc2c(NCCN3CCOCC3)c(C(=O)Nc3ccc(C(=O)O)cc3)c(=O)[nH]c12.O=CO [Example 143, 4-{[6-fluoro-8-(methylamino)-4-{[2-(morpholine-4-yl)ethyl]amino}-2-oxo-1,2-dihydroquinoline-3-carbonyl]amino}benzoic acid-formate] |  | > 64 | 14.6
18 | CNc1cccc2cc(C(=O)Nc3ccc(CC(=O)O)cc3)c(=O)[nH]c12 [Example 166, (4-{[8-(methylamino)-2-oxo-1,2-dihydroquinoline-3-carbonyl]amino}phenyl)acetic acid] | 18.1 | > 16 | 
19 | CNc1cccc2cc(C(=O)NCCc3ccc(C(=O)O)cc3)c(=O)[nH]c12 [Example 167, 4-(2-{[8-(methylamino)-2-oxo-1,2-dihydroquinoline-3-carbonyl]amino}ethyl)benzoic acid] | 134 | > 32 | 
20 | CNc1cccc2cc(C(=O)NCc3cccc(C(=O)O)c3)c(=O)[nH]c12 [Example 168, 3-({[8-(methylamino)-2-oxo-1,2-dihydroquinoline-3-carbonyl]amino}methyl)benzoic acid] | 1670 | > 32 | 
